Measured values taken from US20230098944A1, “METHOD OF DECREASING AMYLOID BETA MONOMER LEVELS IN PATIENTS WITH COGNITIVE DECLINE” (Cognition Therapeutics, Inc., priority 2020, published 2023).
Where two headings read alike, the source gives them in different places.

What was measured:
Aβ oligomers [1] = test: Microimmunoelectrode (MIE) measurement of Aβ oligomers in patient CSF after single dose (NCT03522129); assay type: in vivo, human
Method: (§1) Methods: A Phase 2 clinical trial (NCT03522129) was conducted enrolling patients with mild-to-moderate Alzheimer's disease (MMSE 18-26) into the Randomized, double-blind, placebo-controlled, single dose administration of CT1812 followed by hourly sampling of lumbar CSF via indwelling catheter for 24 hours. The primary objective of the study was to evaluate target engagement of CT1812 treatment by measuring the displacement of Aβ oligomers into cerebrospinal fluid (CSF). The was quantified by a measuring change from the baseline CSF Aβ oligomer concentration after dosing with CT1812 versus placebo. Microimmunoelectrodes (Yuede et al 2016) coated with oligomer-specific antibody, A11 were placed in CSF samples of Alzheimer's disease patient samples to detect soluble Aβ after a single dose of CT1812 (560 mg) or placebo. Results: Microimmunoelectrode (MIE) measurements of Aβ oligomers in CSF show a drug-dependent rise in Aβ oligomers over time.

Aβ oligomers [2] = test: Native Western Blot (82E1 antibody) measurement of Aβ oligomers in patient CSF (NCT03522129); assay type: in vivo, human
Aβ 40 and 42 monomers = Aβ 40 and 42 monomers in patient CSF after single dose (NCT03522129); assay type: in vivo, human; details: single dose 560 mg, similar in all three patients including placebo
Method: as §1, with “[…] Percent change from baseline” for “Results: Microimmunoelectrode (MIE) measurements of Aβ oligomers in CSF show a drug-dependent rise”, “40 and 42 monomers were similar in all three patients (<50% increase). […] CSF Aβ oligomer levels were fit to a linear regression and the significance of the slope difference from zero was determined for each patient (FIG. 4 (measured by microimmunoelectrodes); FIG. 5 (measured by Western Blot)).” for “oligomers over time.”

[3] = Plasma and CSF pharmacokinetics from NCT03522129; assay type: in vivo, human; details: single dose of CT1812 (560 mg); for AUC(0-t) / Cmax / Kp: 560 mg; for Kp: CSF/plasma
Patients = test: ADAS-COG score after 185 days of treatment versus placebo; assay type: in vivo, human; details: day 185, treated at least 6 months (185 days), FIG. 7
Excerpt: Patients treated for at least 6 months (185 days) with CT1812 were compared with patients who received placebo.

amyloid β monomer = details: human subjects treated for 28 days; see 62/976,325; cited from earlier work
[4] = tested on: amyloid β oligomers and monomers; details: animal models and preclinical data; cited from earlier work

With `CC(C)(C)Oc1cc(CCC(C)(C)N2Cc3ccc(S(C)(=O)=O)cc3C2)ccc1O` [CT1812] the “linear slope of CSF Aβ oligomer level over time (MIE)” value (Aβ oligomers [1]; Patients 1 and 3, p<0.001 for each patient, R^2=0.7720 and 0.7898, placebo slope not different from zero) was “significantly non-zero”, the “Aβ oligomer levels in CSF over time (MIE)” value (Aβ oligomers [1]; single dose 560 mg, hourly lumbar CSF for 24 hours, mild-to-moderate Alzheimer's disease patients, not seen in placebo patient) was “apparent increase with time” and the “Aβ oligomer increase, percent change from baseline in CSF” value (Aβ oligomers [1]; two treated patients, single dose 560 mg, no increase in placebo-treated patient, FIG. 4 (MIE), FIG. 5 (Western Blot)) was “more than 200%”. For the same molecule, the “linear slope of CSF Aβ oligomer level over time (Western Blot)” value (Aβ oligomers [2]; Patients 1 and 3, p<0.001 for each patient, R^2=0.9808 and 0.3997, placebo slope not different from zero) was “significantly non-zero”, the “Aβ oligomer levels in CSF over time (Western Blot)” value (Aβ oligomers [2]; single dose 560 mg, hourly lumbar CSF for 24 hours, not seen in placebo patient) was “apparent increase with time” and the “Percent change from baseline in Aβ 40 and 42 monomers (increase)” value (Aβ 40 and 42 monomers) was < 50%. The tmax ([3]; Plasma, Subject 90003) was 2.00 h, the AUC(0-t) ([3]; human, CSF, Subject 90001) was 120 ng·h/mL and the Cmax ([3]; human, CSF, Subject 90001) was 24.9 ng/mL. The AUC(0-t) ([3]; human, CSF, Subject 90003) was 46.4 ng·h/mL, the Cmax ([3]; human, CSF, Subject 90003) was 7.27 ng/mL and the Kp ([3]; human, Subject 90001, read-out: CSF/Plasma Ratio based on AUC0-last) was 0.0381. It also gave a Kp ([3]; human, Subject 90001, read-out: CSF/Plasma Ratio based on Cmax) of 0.0358, a Kp ([3]; human, Subject 90003, read-out: CSF/Plasma Ratio based on AUC0-last) of 0.0384 and a Kp ([3]; human, Subject 90003, read-out: CSF/Plasma Ratio based on Cmax) of 0.0291. For the same molecule, the AUC(0-t) ([3]; human, plasma, Subject 90001) was 3160 ng·h/mL, the Cmax ([3]; human, plasma, Subject 90001) was 695 ng/mL and the AUC(0-t) ([3]; human, plasma, Subject 90003) was 1210 ng·h/mL. For the same molecule, the Cmax ([3]; human, plasma, Subject 90003) was 250 ng/mL, the tmax ([3]; human, CSF, Subject 90003, read-out: tmax) was 3 h and the “difference in Alzheimer's Disease Assessment Score (ADAS-COG) between treated and untreated patients” value (Patients) was “three-point difference”. The “amyloid β monomer concentration in the cerebral spinal fluid or interstitial fluid” value (amyloid β monomer) was “no change”, the “amyloid β oligomer concentration in cerebral spinal fluid and brain interstitial fluid” value [4] was “selectively displace oligomers and increase their concentration” and the “concentration of amyloid β monomers” value [4] was “had not effect”.
